Reference: patent publication US10766869B2, “Triazoles for the treatment of demyelinating dieases” (Vertex Pharmaceuticals Incorporated, priority 2015, dated 2020)
Like-named read-outs stand apart in the source and are kept apart here.

System: primary rat mixed cortical cells
Assay: In vitro myelination assay (MBP positive myelin strands, fold myelin pixels above background)
Type: cell-based
Conditions: Rattus norvegicus; for fold induction at 1 µM: 1.0 μM compound; for fold induction at 10 µM: 10.0 μM compound
Source text: In Vitro Myelination Assay
Compounds were screened for their ability to induce myelination using a primary rat mixed cortical cell culture assay, which contains neurons, oligodendrocyte precursor cells, oligodendrocytes, astrocytes and microglia. The assay quantifies myelination by measuring myelin basic protein (MBP) immunofluorescent positive myelin strands from images taken using a Cellomics Array Scan (model Arrayscan VTI HCS Reader) or a Molecular Devices Image Xpress (model IXM XL) high content imager. The myelin strands were quantitated using a custom created myelin detection software program. Test compounds were dissolved in DMSO to make a 10 mM initial stock solution. Dilutions were made in myelination medium to obtain the final solutions for the assay and were tested in primary rat mixed cortical cells at selected doses.
Primary rat mixed cortical cells were prepared from harvested cerebral cortices from postnatal day 1 (P1) rats (P1 Rat CD® IGS pups) were purchased from Charles River) in Complete Dissociation Medium, wherein the meninges were removed and the cortical tissue chopped with a razor blade into ˜1 mm^3 pieces. Tissue from 1-3 pups was collected and placed into 15 ml conical tubes in a total volume of 5 ml of Complete Dissociation Medium. Activated papain (3 ml) was added to each 15 ml conical tube and tissue was incubated at 37° C. for 30 minutes. After the 30 minute incubation, DNase (Sigma D4527; 75 μl of a 1 mg/ml stock) was added to each tube, followed by mechanical trituration using a 2 ml serological pipette and autopipettor to gently dissociate the tissue. Following trituration, larger tissue pieces were allowed to settle by gravity, and the supernatant containing dissociated cells was transferred to a 50 ml conical tube with 4 ml of trypsin inhibitor. Cells were pelleted by centrifugation, resuspended in myelination medium and filtered through a 40 μm filter. Cells were then seeded in 96-well plates (BD Biosciences, Black, PDL-coated, Cat. No. 356640) at 87,500-95,000 cells/well in a final volume of 200 μl of Myelination Medium in the presence or absence of compound and cultured for 14 days in a humidified 37° C. incubator with 5% CO2. Half the medium was removed and replaced with fresh medium containing 1× compound on days 6 and 10. Using a Biotek automatic plate washer (model Biomek® FXP Laboratory Automation Workstation), cells were fixed with 4% paraformaldehyde on day 14, washed with PBS and blocked in 5% normal goat serum (Vector Laboratories, S-1000) in 0.1% PBS-TritonX-100 (PBST) for 1 hour. Cells were stained with 1:500 anti-MBP (Covance, cat # SMI99) primary antibody in 1% normal goat serum in 0.1% PBST for 2 hours at room temperature followed by 2 washes with PBST. A final incubation in secondary antibody (1:1000, Invitrogen, Alexa-488 anti-mouse IgG2b) and 1:10,000 Hoechst dye in 1% normal goat serum in 0.1% PBST was performed for 2 hours at room temperature. Plates were washed with PBS and then scanned on a Cellomics Array Scan using a 10× objective (25 images per well) or the Image Xpress using a 10× objective (9 image per well). Images were analyzed using Vertex myelin detection software (described below) to quantify total MBP myelin pixels per well. Fold myelin pixels above background at two concentrations (1.0 μM and 10.0 μM) relative to baseline of no added compound are reported below in Table 4. Standard deviation for each compound concentration was calculated using all replicates and using a standard deviation formula commonly used in the art.
One of skill in the art would recognize that for this type of primary neuronal mixed cell assay variability between different assay runs is to be expected even though the protocol is the same for each assay run. For instance, variability may be due to small differences in cell viability, cell density, age of the animals, etc.
Vertex Myelin Detection Software: […]

[1] = relative to baseline of no added compound, read-out: Fold myelin pixels above background, 1.0 μM
[2] = relative to baseline of no added compound, read-out: Fold myelin pixels above background, 10.0 μM
[3] = relative to baseline of no added compound, read-out: Fold myelin pixels above background
[4] = read-out: Fold myelin pixels above background relative to baseline of no added compound

SMILES | fold induction at 1 µM [3] | fold induction at 10 µM [3] | also measured
Cc1cc(Nc2ncn(-c3cc(F)cc(F)c3)n2)cc([C@H]2CCN(C3COC3)C[C@@H]2O)c1 (racemic) [Compound 282, (3R,4R)-4-[3-[[1-(3,5-difluorophenyl)-1,2,4-triazol-3-yl]amino]-5-methyl-phenyl]-1-(oxetan-3-yl)piperidin-3-ol; (3S,4S)-4-[3-[[1-(3,5-difluorophenyl)-1,2,4-triazol-3-yl]amino]-5-methyl-phenyl]-1-(oxetan-3-yl)piperidin-3-ol] | – | – | fold induction at 1 µM [1]: 10 to 100; fold induction at 10 µM [2]: 10 to 100
Cc1cc(Nc2ncn(-c3cc(F)cc(F)c3)n2)cc([C@@H]2CCN(C3COC3)C2)c1 (single isomer, unassigned) [Compound 92] | – | – | fold induction at 1 µM [1]: 1000 to 10000; fold induction at 10 µM [2]: 100 to 1000
Cc1cc(Nc2ncn(-c3cc(F)cc(F)c3)n2)cc([C@@]2(O)CCN(C3COC3)C2)c1 (single isomer, unassigned) [Compound 101] | – | – | fold induction at 1 µM [1]: 1000 to 10000; fold induction at 10 µM [2]: 1 to 10
Cc1cc(Nc2ncn(-c3cc(F)cc(F)c3)n2)cc([C@H]2CCN(C3COC3)C2)c1 (single isomer, unassigned) [Compound 473] | 100 to 1000 | 1 to 10 | –
Cc1cc(Nc2ncn(-c3cnccn3)n2)cc([C@@]2(C)CNC(=O)O2)c1 (single isomer, unassigned) [Compound 603] | 10 to 100 | 10 to 100 | –
Cc1cc(Nc2ncn(-c3cc(F)cc(F)c3)n2)cc([C@@]2(C)CN(C)C(=O)O2)c1 (single isomer, unassigned) [Compound 611] | 10 to 100 | 1 to 10 | –
Cc1cc(Nc2ncn(-c3cc(F)cc(F)c3)n2)cc([C@H]2CN(C3COC3)CCO2)c1 (single isomer, unassigned) [Compound 623] | 10 to 100 | 1 to 10 | –
Cc1cc(Nc2ncn(-c3ccc(F)c(F)c3)n2)cc(O[C@H]2CCCN(C3COC3)C2)c1 (single isomer, unassigned) [Compound 632] | 10 to 100 | ≤ 1 | –
Cc1cc(Nc2ncn(-c3cc(F)cc(F)c3)n2)cc(N[C@H]2C[C@H](N3CCOCC3)C2)c1 (single isomer, unassigned) [Compound 649, N1-[1-(3,5-difluorophenyl)-1,2,4-triazol-3-yl]-5-methyl-N3-(3-morpholinocyclobutyl)benzene-1,3-diamine] | 10 to 100 | ≤ 1 | –
Cc1cc(Nc2ncn(-c3cc(F)cc(F)c3)n2)cc([C@]2(C)CNC(=O)O2)c1 (single isomer, unassigned) [Compound 655] | 10 to 100 | ≤ 1 | –
Cc1cc(Nc2ncn(-c3ccc(F)c(F)c3)n2)cc(O[C@@H]2CCCN(C3COC3)C2)c1 (single isomer, unassigned) [Compound 665] | 10 to 100 | 1 to 10 | –
Cc1cc(Nc2ncn(-c3cc(F)cc(F)c3)n2)cc([C@@]2(C)CN(C3COC3)CCO2)c1 (single isomer, unassigned) [Compound 667] | 10 to 100 | 1 to 10 | –
Fc1cc(F)cc(-n2cnc(Nc3cc(C(F)(F)F)cc(N4CCN([C@@H]5CCOC5)CC4)n3)n2)c1 (single isomer, unassigned) [Compound 672] | 1 to 10 | 1 to 10 | –
Cc1cc(Nc2ncn(-c3cc(F)cc(F)c3)n2)nc(N2CCN([C@H]3CCOC3)CC2)c1 (single isomer, unassigned) [Compound 673] | 10 to 100 | 100 to 1000 | –
Cc1cc(Nc2ncn(-c3cc(F)cc(F)c3)n2)cc([C@@]2(C)CNC(=O)O2)c1 (single isomer, unassigned) [Compound 679] | 10 to 100 | 1 to 10 | –
Cc1cc(Nc2ncn(-c3cnccn3)n2)cc([C@]2(C)CNC(=O)O2)c1 (single isomer, unassigned) [Compound 682] | 10 to 100 | 10 to 100 | –
Cc1cc(Nc2ncn(-c3cc(F)cc(F)c3)n2)cc(N2CC(N3CCO[C@H](C)C3)C2)c1 (single isomer, unassigned) [Compound 696] | 10 to 100 | 1 to 10 | –
Cc1cc(Nc2ncn(-c3cc(F)cc(F)c3)n2)cc(O[C@H]2CCCN(C3COC3)C2)c1 (single isomer, unassigned) [Compound 700] | 10 to 100 | ≤ 1 | –
Cc1cc(Nc2ncn(-c3cc(F)cc(F)c3)n2)nc(N2CCN([C@H]3CCOC3)CC2)c1 (single isomer, unassigned) [Compound 740] | 10 to 100 | 10 to 100 | –
Cc1cc(Nc2ncn(-c3cc(F)cc(F)c3)n2)cc(O[C@@H]2CCCN(C3COC3)C2)c1 (single isomer, unassigned) [Compound 748] | 10 to 100 | ≤ 1 | –
Cc1cc(Nc2ncn(-c3cc(F)cc(F)c3)n2)cc([C@]2(C)CN(C3COC3)CCO2)c1 (single isomer, unassigned) [Compound 750] | 1 to 10 | 10 to 100 | –
Cc1cc(Nc2ncn(-c3cc(F)cc(F)c3)n2)cc([C@@H]2CN(C3COC3)CCO2)c1 (single isomer, unassigned) [Compound 751] | 10 to 100 | ≤ 1 | –
Fc1cc(F)cc(-n2cnc(Nc3cc(C(F)(F)F)cc(N4CCN([C@H]5CCOC5)CC4)n3)n2)c1 (single isomer, unassigned) [Compound 787] | – | – | fold induction at 1 µM [4]: 1 to 10; fold induction at 10 µM [4]: 10 to 100
Cc1cc(Nc2ncn(-c3ccc(F)c(F)c3)n2)cc(N[C@H]2C[C@H](N3CCOCC3)C2)c1 (single isomer, unassigned) [Compound 792, N1-[1-(3,4-difluorophenyl)-1,2,4-triazol-3-yl]-5-methyl-N3-(3-morpholinocyclobutyl)benzene-1,3-diamine] | – | – | fold induction at 1 µM [4]: 10 to 100; fold induction at 10 µM [4]: ≤ 1
Cc1cc(Nc2ncn(-c3cc(F)cc(F)c3)n2)cc([C@]2(C)CN(C)C(=O)O2)c1 (single isomer, unassigned) [Compound 796] | – | – | fold induction at 1 µM [4]: 10 to 100; fold induction at 10 µM [4]: ≤ 1
Cc1cc(Nc2ncn(-c3cc(F)cc(F)c3)n2)cc(N2CC(N3CCOC[C@@H]3C)C2)c1 (single isomer, unassigned) [Compound 800] | – | – | fold induction at 1 µM [4]: 10 to 100; fold induction at 10 µM [4]: 10 to 100
Cc1cc(Nc2ncn(-c3ccc(F)c(F)c3)n2)cc(N[C@H]2C[C@@H](N3CCOCC3)C2)c1 (single isomer, unassigned) [Compound 826, N1-[1-(3,4-difluorophenyl)-1,2,4-triazol-3-yl]-5-methyl-N3-(3-morpholinocyclobutyl)benzene-1,3-diamine] | – | – | fold induction at 1 µM [4]: 10 to 100; fold induction at 10 µM [4]: ≤ 1
Cc1cc(Nc2ncn(-c3cc(F)cc(F)c3)n2)cc(N[C@H]2C[C@@H](N3CCOCC3)C2)c1 (single isomer, unassigned) [Compound 861, N1-[1-(3,5-difluorophenyl)-1,2,4-triazol-3-yl]-5-methyl-N3-(3-morpholinocyclobutyl)benzene-1,3-diamine] | – | – | fold induction at 1 µM [4]: 10 to 100; fold induction at 10 µM [4]: ≤ 1
